Measurements reported in patent US20220306695A1, “COMPSTATIN ANALOGUES AND THEIR MEDICAL USES” (priority 2019, published 2022).
Starred links: 1 amine or outer side, 2 acyl side, 3 side chain; linkers in the order of their positions; H or OH if unused. Positions of bridges follow the written chain, without caps; N, C: chain ends. Non-standard residues stand in square brackets, D forms with d. Residues, ends and D or L forms follow the SMILES beside them. Groups on a side chain read outwards from the residue. *: point of attachment. X1 = O=C(O)CCCCCCCCCCCCCCC(=O)N1CCN(CC(=O)*)CC1; C20 diacid = O=C(O)CCCCCCCCCCCCCCCCCCC(=O)*; Trp(1-Me) = Cn1cc(C[C@H](N)C(=O)O)c2ccccc21; C18 diacid = O=C(O)CCCCCCCCCCCCCCCCC(=O)*; C16 diacid = O=C(O)CCCCCCCCCCCCCCC(=O)*; γGlu = O=C(O)[C@H](CCC(=O)[*:2])N[*:1]; AEEA = NCCOCCOCC(=O)O; Sar = CNCC(=O)O

Tested on: classical complement pathway
Assay: In vitro haemolysis assay (inhibition of classical complement pathway)
Format: cell-based, human
Settings: Table 3; human serum, sensitized sheep red blood cells; read-out: IC50[nM], in vitro analysis of inhibition of hemolysis
How it was run: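 Serially diluted compound (9 points) was preincubated 15 min at room temperature with diluted human serum, titrated per batch to give 70-90% maximal haemolysis, in Tris/casein buffer pH 7.4 with Mg2+/Ca2+. Antibody-sensitized sheep erythrocytes were then added for 30 min at 37° C, and the reaction was stopped with EDTA. Haemolysis was read at A405, with IC50 from 4PL fit.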

Structure (SMILES) | IC50
CC[C@H](C)[C@H](NC(C)=O)C(=O)N[C@H]1CSSC[C@@H](C(=O)N[C@H](C(=O)N[C@@H](CCC(=O)O)C(=O)NCC(=O)N[C@@H](CCCCNC(=O)COCCOCCNC(=O)COCCOCCNC(=O)CN2CCN(C(=O)CCCCCCCCCCCCCCC(=O)O)CC2)C(N)=O)[C@@H](C)O)NC(=O)[C@H](CCCNC(=N)N)NC(=O)[C@H](Cc2c[nH]cn2)NC(=O)[C@H](CCC(=O)O)NC(=O)CNC(=O)[C@H](Cc2c[nH]c3ccccc23)NC(=O)[C@H](CC(=O)O)NC(=O)[C@H](CCC(N)=O)NC(=O)[C@H](Cc2c[nH]c3ccccc23)NC(=O)[C@H]([C@@H](C)CC)NC1=O [Compound 95] (Ac-ICIWQDWGEHRCTEGK([AEEA-AEEA-X1])-NH2; disulfide 2-12) | < 500 nM
CC[C@H](C)[C@H](NC(C)=O)C(=O)N[C@H]1CSSC[C@@H](C(=O)N[C@H](C(=O)N[C@@H](CCC(=O)O)C(=O)NCC(=O)N[C@@H](CCCCNC(=O)COCCOCCNC(=O)COCCOCCNC(=O)CC[C@H](NC(=O)CCCCCCCCCCCCCCCCC(=O)O)C(=O)O)C(N)=O)[C@@H](C)O)NC(=O)[C@H](CCCNC(=N)N)NC(=O)[C@H](Cc2c[nH]cn2)NC(=O)[C@H](CCC(=O)O)NC(=O)CNC(=O)[C@H](Cc2c[nH]c3ccccc23)NC(=O)[C@H](CC(=O)O)NC(=O)[C@H](CCC(N)=O)NC(=O)[C@H](Cc2c[nH]c3ccccc23)NC(=O)[C@H]([C@@H](C)CC)NC1=O [Compound 96] (Ac-ICIWQDWGEHRCTEGK([AEEA-AEEA-γGlu-C18 diacid])-NH2; disulfide 2-12) | < 1000 nM
CC[C@H](C)[C@H](NC(C)=O)C(=O)N[C@H]1CSSC[C@@H](C(=O)N[C@H](C(=O)N[C@@H](CCC(=O)O)C(=O)NCC(=O)N[C@@H](CCCCNC(=O)COCCOCCNC(=O)COCCOCCNC(=O)CC[C@H](NC(=O)CCCCCCCCCCCCCCCCCCC(=O)O)C(=O)O)C(N)=O)[C@@H](C)O)NC(=O)[C@H](CCCNC(=N)N)NC(=O)[C@H](Cc2c[nH]cn2)NC(=O)[C@H](CCC(=O)O)NC(=O)CNC(=O)[C@H](Cc2c[nH]c3ccccc23)NC(=O)[C@H](CC(=O)O)NC(=O)[C@H](CCC(N)=O)NC(=O)[C@H](Cc2c[nH]c3ccccc23)NC(=O)[C@H]([C@@H](C)CC)NC1=O [Compound 98] (Ac-ICIWQDWGEHRCTEGK([AEEA-AEEA-γGlu-C20 diacid])-NH2; disulfide 2-12) | < 500 nM
CC[C@H](C)[C@H](NC(=O)[C@H](C)NC(=O)[C@H](CO)NC(=O)[C@H](CO)NC(=O)[C@H](CCC(=O)O)NC(=O)CCCCCCCCCCCCCCC(=O)O)C(=O)N[C@H]1CSSC[C@@H](C(=O)N[C@H](C(=O)N[C@@H](CCC(=O)O)C(=O)NCC(=O)N[C@@H](CCC(=O)O)C(N)=O)[C@@H](C)O)NC(=O)[C@H](CCCNC(=N)N)NC(=O)[C@H](Cc2c[nH]cn2)NC(=O)[C@H](CCC(=O)O)NC(=O)CNC(=O)[C@H](Cc2c[nH]c3ccccc23)NC(=O)[C@H](CC(=O)O)NC(=O)[C@H](CCC(N)=O)NC(=O)[C@H](Cc2c[nH]c3ccccc23)NC(=O)[C@H]([C@@H](C)CC)NC1=O [Compound 99] ({C16 diacid}-ESSAICIWQDWGEHRCTEGE-NH2; disulfide 6-16) | < 250 nM
CC[C@H](C)[C@H](NC(=O)[C@H](C)NC(=O)[C@H](CO)NC(=O)CNC(=O)[C@H](CCCCNC(=O)COCCOCCNC(=O)COCCOCCNC(=O)CC[C@H](NC(=O)CCCCCCCCCCCCCCC(=O)O)C(=O)O)NC(C)=O)C(=O)N[C@H]1CSSC[C@@H](C(=O)N[C@H](C(=O)N[C@@H](CCC(=O)O)C(=O)NCC(=O)N[C@@H](CCC(=O)O)C(N)=O)[C@@H](C)O)NC(=O)[C@H](CCCNC(=N)N)NC(=O)[C@H](Cc2c[nH]cn2)NC(=O)[C@H](CCC(=O)O)NC(=O)CNC(=O)[C@H](Cc2c[nH]c3ccccc23)NC(=O)[C@H](CC(=O)O)NC(=O)[C@H](CCC(N)=O)NC(=O)[C@H](Cc2c[nH]c3ccccc23)NC(=O)[C@H]([C@@H](C)CC)NC1=O [Compound 100] (Ac-K([AEEA-AEEA-γGlu-C16 diacid])GSAICIWQDWGEHRCTEGE-NH2; disulfide 6-16) | < 500 nM
CC[C@H](C)[C@H](NC(=O)[C@H](C)NC(=O)[C@H](CO)NC(=O)CNC(=O)[C@H](CCC(=O)O)NC(C)=O)C(=O)N[C@H]1CSSC[C@@H](C(=O)N[C@H](C(=O)N[C@@H](CCC(=O)O)C(=O)NCC(=O)N[C@@H](CCCCNC(=O)CC[C@H](NC(=O)CCCCCCCCCCCCCCC(=O)O)C(=O)O)C(N)=O)[C@@H](C)O)NC(=O)[C@H](CCCNC(=N)N)NC(=O)[C@H](Cc2c[nH]cn2)NC(=O)[C@H](CCC(=O)O)NC(=O)CNC(=O)[C@H](Cc2c[nH]c3ccccc23)NC(=O)[C@H](CC(=O)O)NC(=O)[C@H](CCC(N)=O)NC(=O)[C@H](Cc2c[nH]c3ccccc23)NC(=O)[C@H]([C@@H](C)CC)NC1=O [Compound 101] (Ac-EGSAICIWQDWGEHRCTEGK([γGlu-C16 diacid])-NH2; disulfide 6-16) | < 500 nM
CC[C@H](C)[C@@H]1NC(=O)[C@@H](NC(=O)[C@H](Cc2ccc(O)cc2)NC(=O)[C@H](C)NC(=O)[C@H](CO)NC(=O)CNC(=O)[C@H](CCC(=O)O)NC(C)=O)CSSC[C@@H](C(=O)N(C)CC(=O)N[C@@H](CCC(=O)O)C(=O)NCC(=O)N[C@@H](CCCCN)C(=O)N[C@@H](CCCCNC(=O)CC[C@H](NC(=O)CNC(=O)CC[C@H](NC(=O)CCCCCCCCCCCCCCCCC(=O)O)C(=O)O)C(=O)O)C(N)=O)NC(=O)[C@H](CCCNC(=N)N)NC(=O)[C@H](Cc2c[nH]cn2)NC(=O)[C@H](CCC(=O)O)NC(=O)CNC(=O)[C@H](Cc2c[nH]c3ccccc23)NC(=O)[C@H](CC(=O)O)NC(=O)[C@H](CCC(N)=O)NC(=O)[C@H](Cc2cn(C)c3ccccc23)NC1=O [Compound 110] (Ac-EGSAYCI[Trp(1-Me)]QDWGEHRC[Sar]EGKK([γGlu-Gly-γGlu-C18 diacid])-NH2; disulfide 6-16) | < 250 nM
CC[C@H](C)[C@@H]1NC(=O)[C@@H](NC(=O)[C@H](Cc2ccc(O)cc2)NC(=O)[C@H](CCC(=O)O)NC(=O)[C@H](CO)NC(C)=O)CSSC[C@@H](C(=O)N(C)CC(=O)N[C@@H](CCC(=O)O)C(=O)NCC(=O)N[C@@H](C)C(=O)N[C@@H](CCCCNC(=O)CC[C@H](NC(=O)CNC(=O)CC[C@H](NC(=O)CCCCCCCCCCCCCCCCC(=O)O)C(=O)O)C(=O)O)C(N)=O)NC(=O)[C@H](CCCNC(=N)N)NC(=O)[C@H](Cc2c[nH]cn2)NC(=O)[C@H](CCC(=O)O)NC(=O)CNC(=O)[C@H](Cc2c[nH]c3ccccc23)NC(=O)[C@H](CC(=O)O)NC(=O)[C@H](CCC(N)=O)NC(=O)[C@H](Cc2cn(C)c3ccccc23)NC1=O [Compound 112] (Ac-SEYCI[Trp(1-Me)]QDWGEHRC[Sar]EGAK([γGlu-Gly-γGlu-C18 diacid])-NH2; disulfide 4-14) | < 500 nM
CC[C@H](C)[C@@H]1NC(=O)[C@@H](NC(=O)[C@H](Cc2ccc(O)cc2)NC(=O)[C@H](CCC(=O)O)NC(=O)CNC(=O)[C@H](CO)NC(=O)[C@H](C)NC(C)=O)CSSC[C@@H](C(=O)N(C)CC(=O)N[C@@H](CCC(=O)O)C(=O)NCC(=O)N[C@@H](CCC(=O)O)C(=O)N[C@@H](CCCCNC(=O)CC[C@H](NC(=O)CNC(=O)CC[C@H](NC(=O)CCCCCCCCCCCCCCCCC(=O)O)C(=O)O)C(=O)O)C(N)=O)NC(=O)[C@H](CCCNC(=N)N)NC(=O)[C@H](Cc2c[nH]cn2)NC(=O)[C@H](CCC(=O)O)NC(=O)CNC(=O)[C@H](Cc2c[nH]c3ccccc23)NC(=O)[C@H](CC(=O)O)NC(=O)[C@H](CCC(N)=O)NC(=O)[C@H](Cc2cn(C)c3ccccc23)NC1=O [Compound 113] (Ac-ASGEYCI[Trp(1-Me)]QDWGEHRC[Sar]EGEK([γGlu-Gly-γGlu-C18 diacid])-NH2; disulfide 6-16) | < 500 nM
CC[C@H](C)[C@@H]1NC(=O)[C@@H](NC(=O)[C@H](Cc2ccc(O)cc2)NC(=O)[C@H](CCC(=O)O)NC(=O)[C@H](CO)NC(C)=O)CSSC[C@@H](C(=O)N(C)CC(=O)N[C@@H](CCC(=O)O)C(=O)NCC(=O)N[C@@H](CCC(=O)O)C(=O)NCCOCCOCC(=O)NCCOCCOCC(=O)N[C@@H](CCCCNC(=O)CC[C@H](NC(=O)CNC(=O)CC[C@H](NC(=O)CCCCCCCCCCCCCCCCC(=O)O)C(=O)O)C(=O)O)C(N)=O)NC(=O)[C@H](CCCNC(=N)N)NC(=O)[C@H](Cc2c[nH]cn2)NC(=O)[C@H](CCC(=O)O)NC(=O)CNC(=O)[C@H](Cc2c[nH]c3ccccc23)NC(=O)[C@H](CC(=O)O)NC(=O)[C@H](CCC(N)=O)NC(=O)[C@H](Cc2cn(C)c3ccccc23)NC1=O [Compound 117] (Ac-SEYCI[Trp(1-Me)]QDWGEHRC[Sar]EGE[AEEA][AEEA]K([γGlu-Gly-γGlu-C18 diacid])-NH2; disulfide 4-14) | < 250 nM
CC[C@H](C)[C@@H]1NC(=O)[C@@H](NC(=O)[C@H](Cc2ccc(O)cc2)NC(=O)[C@H](CCC(=O)O)NC(=O)[C@H](CO)NC(C)=O)CSSC[C@@H](C(=O)N(C)CC(=O)N[C@@H](CCC(=O)O)C(=O)NCC(=O)N[C@@H](CCC(=O)O)C(=O)NCCOCCOCC(=O)NCCOCCOCC(=O)N[C@@H](CCCCNC(=O)CC[C@H](NC(=O)CNC(=O)CC[C@H](NC(=O)CCCCCCCCCCCCCCCCC(=O)O)C(=O)O)C(=O)O)C(N)=O)NC(=O)[C@H](CCCNC(=N)N)NC(=O)[C@H](Cc2c[nH]cn2)NC(=O)[C@H](CCC(=O)O)NC(=O)CNC(=O)[C@H](Cc2c[nH]c3ccccc23)NC(=O)[C@H](CCC(=O)O)NC(=O)[C@H](CCC(N)=O)NC(=O)[C@H](Cc2cn(C)c3ccccc23)NC1=O [Compound 125] (Ac-SEYCI[Trp(1-Me)]QEWGEHRC[Sar]EGE[AEEA][AEEA]K([γGlu-Gly-γGlu-C18 diacid])-NH2; disulfide 4-14) | < 500 nM
